In patent US20090085008A1, “Cellulose compound composition and cellulose compound film” (FUJIFILM Corporation, priority 2005, published 2009):

Assay: Solubility in mixture solvent methylene chloride:methanol = 87:13
Assay type: physicochemical
Conditions: Methylene chloride:Methanol = 87:13 (mass ratio)
Procedure: A test was conducted to evaluate the solubility of the compound represented by formula (1) or (2), which can be used in the present invention, in a halogen-containing mixture solution.

Solubility: 1%
SMILES: COc1cc(OC)c(C(=O)Oc2ccc(C(=O)Oc3ccc(-c4ccc(OC(=O)c5ccc(OC(=O)c6cc(OC)c(OC)cc6OC)cc5)cc4)cc3)cc2)cc1OC [Analogous compound]
